The source of these data is US12208130B2, “Treatment of women affected with polycystic ovary syndrome” (INSTITUT NATIONAL DE LA SANTE ET DE LA RECHERCHE MEDICALE …, priority 2017, dated 2025).

The data set can be described thus: Cetrorelix measurement in maternal and fetal brain (nano-HPLC-HRMS). Type of data set: in vivo, mouse. Conditions: dams i.p. 0.5 mg/Kg E16.5-E18.5; brains at E19.5. The protocol: Timed-pregnant adult (3-4 months) C57BL6/J (B6) (Charles River, USA) dams were injected daily intraperitoneally (i.p.) from embryonic day (E) 16.5 to 18.5 with 200 μL of a solution containing respectively: 1) 0.01M phosphate buffered saline (PBS, pH 7.4, prenatal control-treated), 2) PBS with 0.5 mg Kg^−1 of the GnRH antagonist, cetrorelix acetate (Sigma, Cat #C5249; GnRH antag-treated). At E19.5, dams were anesthetized with ketamine/xylazine, and sacrificed by cervical dislocation. Dams' brains and fetal brains were collected, snap-frozen in liquid nitrogen and stored at −80° C. until nano-HPLC-HRMS experiments.
Murine maternal and embryo brain samples were prepared adapting the procedure described (Wang et al., 2014, Vol. 1345: 98-106). Briefly, the brains were weighted, homogenized with 1% formic acid in cold acetonitrile and incubated for 15 minutes at −20° C. After centrifugation, the supernatant was freeze-dried and reconstituted with 3% acetic acid and 1% trifluoroacetic acid (TFA). all of the solvents were from Sigma-Aldrich Merck (Milan, Italy). […]
The column was equipped with a nanoESl source and the capillary voltage was 2000 V in positive ion mode. […] High resolution spectra were acquired with a resolution of 60000 (FWHM) and the mass accuracy of recorded ions (vs. calculated) was ±5 ppm units (without internal calibration).

Molecules are shown by their SMILES. Where a SMILES comes first, the peptide text is derived from it. [ ]: non-standard residue; d: D form. dPhe(4-Cl) = N[C@H](Cc1ccc(Cl)cc1)C(=O)O; d2Nal = N[C@H](Cc1ccc2ccccc2c1)C(=O)O; dCit = NC(=O)NCCC[C@@H](N)C(=O)O; d3Pal = N[C@H](Cc1cccnc1)C(=O)O

For `CC(=O)N[C@H](Cc1ccc2ccccc2c1)C(=O)N[C@H](Cc1ccc(Cl)cc1)C(=O)N[C@H](Cc1cccnc1)C(=O)N[C@@H](CO)C(=O)N[C@@H](Cc1ccc(O)cc1)C(=O)N[C@H](CCCNC(N)=O)C(=O)N[C@@H](CC(C)C)C(=O)N[C@@H](CCCNC(=N)N)C(=O)N1CCC[C@H]1C(=O)N[C@H](C)C(N)=O` [Cetrorelix acetate, Ac-D-2Nal-D-Phe(4-Cl)-D-3Pal-Ser-Tyr-D-Cit-Leu-Arg-Pro-D-Ala-NH2] (Ac-[d2Nal][dPhe(4-Cl)][d3Pal]SY[dCit]LRP[dA]-NH2), the “access to maternal and fetal brain” value is on record as “can access the maternal as well as the fetal brain”.
